Measured values reported in PubChem BioAssay (NCI).
Several values for one entry are separate records, joined by “and”; a condition that tells them apart may be missing. Equal values may be shown once.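 The compound was tested at five concentrations on cells cultured in 96-well plates, with a 48-hour exposure period. GI50 is the concentration that inhibits growth by half. At the TGI there is no net growth.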

Assays:
Assay in all cases: NCI tumour cell line growth inhibition, 48 h
DMS 114 small cell lung = tested on: DMS 114 small cell lung
P388 leukemia = tested on: P388 leukemia
UO-31 renal = tested on: UO-31 renal
T-47D breast = tested on: T-47D breast
HOP-62 NSCLC = tested on: HOP-62 NSCLC
K-562 leukemia = tested on: K-562 leukemia
OVCAR-8 ovarian = tested on: OVCAR-8 ovarian
MCF7 breast = tested on: MCF7 breast
P388/ADR leukemia = tested on: P388/ADR leukemia
HOP-92 NSCLC = tested on: HOP-92 NSCLC
HCT-116 colon = tested on: HCT-116 colon
DLD-1 colon = tested on: DLD-1 colon
HCT-15 colon = tested on: HCT-15 colon
M19-MEL melanoma = tested on: M19-MEL melanoma
SN12K1 renal = tested on: SN12K1 renal
DMS 273 small cell lung = tested on: DMS 273 small cell lung
SK-MEL-2 melanoma = tested on: SK-MEL-2 melanoma

| SMILES | GI50 (UO-31 renal) | TGI (UO-31 renal) | GI50 (T-47D breast) | TGI (HOP-62 NSCLC) | GI50 (K-562 leukemia) | TGI (K-562 leukemia) | GI50 (OVCAR-8 ovarian) | TGI (MCF7 breast) | GI50 (HOP-92 NSCLC) | TGI (HOP-92 NSCLC) | GI50 (HCT-116 colon) | TGI (HCT-116 colon) | TGI (DLD-1 colon) | TGI (DMS 273 small cell lung) | GI50 (SK-MEL-2 melanoma) | TGI (SK-MEL-2 melanoma) | also measured |
| --- | --- | --- | --- | --- | --- | --- | --- | --- | --- | --- | --- | --- | --- | --- | --- | --- | --- |
| COc1cccc2c1C(CO)N1C(C#N)C3CC(C(=O)O)C(C1C2)N3C (stereo unspecified) | 0.365 µM | 4.36 µM and 2.46 µM | 0.135 µM | 8.15 µM and 3.73 µM | 0.275 µM | > 100 µM | 0.372 µM | > 44 µM | 0.422 µM | 7.63 µM and > 18.4 µM | 0.337 µM | 5.59 µM | 9.07 µM | 8.25 µM | 0.139 µM | 2.32 µM and 0.305 µM | GI50 (DMS 114 small cell lung): 0.159 µM; TGI (P388 leukemia): 6.42 µM; TGI (P388/ADR leukemia): 1.09 µM; GI50 (HCT-15 colon): 0.38 µM; GI50 (M19-MEL melanoma): 0.256 µM; TGI (SN12K1 renal): > 100 µM; GI50 (DMS 273 small cell lung): 0.335 µM |
| CCCCCCCCCCCCCCCCCCOP(=O)([O-])OC1CC[N+](C)(C)CC1 | 4.27 µM | > 10 µM and 21.7 µM | 5.08 µM | > 10 µM and 20.7 µM | 3.63 µM | > 10 µM and 39 µM | > 10 µM | > 10 µM and 34 µM | 2.1 µM | 5.32 µM and 9.79 µM | 5.24 µM | > 10 µM and 20.6 µM | 22.4 µM | 14.9 µM | 8.48 µM | > 10 µM and 30 µM | TGI (DMS 114 small cell lung): 26.5 µM; TGI (T-47D breast): > 10 µM and 36.9 µM; GI50 (HOP-62 NSCLC): 3.2 µM; TGI (OVCAR-8 ovarian): > 10 µM and 28.8 µM; GI50 (MCF7 breast): > 10 µM; TGI (HCT-15 colon): 9.86 µM and 8.72 µM; TGI (M19-MEL melanoma): 14.8 µM |
